Test results published in patent US20060025430A1, “Novel irreversible inhibitors of epidermal growth factor receptor tyrosine kinase and uses thereof for therapy and diagnosis” (priority 2003, published 2006).
Entries after “also recorded” stand apart in the source; their conditions may differ.

Experiments:
[1] = Challenge reaction with reduced glutathione (HPLC conversion to conjugates); type: physicochemical
Method: Standard solutions were prepared by dissolving compound 5, Compound 6 and {4-[(3,4-dichloro-6-fluorophenyl)amino]quinazol ine-6-yl}acrylamide (0.0146 mmol) in 1.75 ml of THF: MeOH (1:2) and glutathione (18 mg, 0.0586 mmol) in 0.5 ml of water. A 300 μL aliquot of the quinazoline standard solution (2.5 μmol) was diluted with 689 μL of THF:MeOH:H2O (1:2:1), after which 11 μL (1.25 μmol) of glutathione solution and 5.22 μL (30 μmol) of N,N′-diisopropylethylamine were added. Conversions of the quinazolines and formation of conjugates at different time points were measured by HPLC using RP (3.9×300 mm) column (mobile phase of acetonirile and acetate buffer 0.1 M (2:3) at a flow rate of 1 ml/min was used herein). The glutathione conjugates were further detected by MS.
As discussed hereinabove, EGFR blockade by irreversible inhibitors is due to the nucleophilic attack of the sulfhydryl group of Cys-773 at the receptor's ATP binding pocket on the reactive chemical group of the EGFR targeted inhibitor. In order to evaluate the chemical reactivity of the novel irreversibly EGFR inhibitors decribed herein, the degree of reactivity of the inhibitors towards the sulfhydryl group of reduced glutathione (GSH) as a nucleophile was tested. Thus, Compound 5, Compound 6 and {4-[(3,4-dichloro-6-fluorophenyl)amino]quinazoline-6-yl}acrylamide were dissolved in THF: MeOH: H2O (1:2:1), and were reacted at room temperature with half an equivalent of reduced glutathione in the presence of 12 equivalents of N,N-diisopropylethylamine. Identical aliquots of the reaction mixtures were taken at various time points and injected into reversed-phase HPLC in order to determine the conversion-rate of the various compounds into glutathione-conjugates. The characteristics of the products were determined using MS.
A study of the reaction rate as a function of the temperature was also performed. Thus, the reaction ws performed at various temperatures ranging from 0° C. and 60° C. The following activation parameters were generated: For {4-[(3,4-dichloro-6-fluorophenyl)amino]quinazoline-6-yl}acrylamide: Ea=5.24 kCalmol^−1, ΔH^#25° C.=4.64 kCalmol^−1 and ΔS^#25° C.=−61.24 Calmol^−1K^−1. For compound 5: Ea=11.4 kCalmol^−1, ΔH^#25° C.=10.80 kCalmol^−1 and ΔS^#25° C.=−41.29 Calmol^−1K^−1.
The reaction rate was calculated using the following rate equation: [formula] kobs=Ae^−Ea/RT

PDGFR = PDGFR (Homo sapiens, UniProt P09619); test: Selective-inhibition assay in […] cells (receptor phosphotyrosine, Western blot); type: cell-based; conditions: […] cells expressing PDGFR, 1 hour incubation, PDGFββ stimulation
Method: (§1) NIH3T3 cells transformed with either the EGFR (DHER14 cells), with the HER1-HER2 chimera (CSH12 cells) or with the PDGFR (NIH/PDGFR cells), decribed by Lee et al.; 1989, Honegger et al., 1988; and Shawver et al. 1997, and A431 human epidermoid vulval carcinoma cells were grown in Dulbecco's modified Eagle's medium (DMEM) (Biological industries, Kibbuts Beit Haemek, Israel) supplemented with 10% fetal calf serum and antibiotics (penicillin […], streptomycin 100 mg/liter) at 37° C. in 5% CO2.
(§2) Selective-inhibition assay: CSH12, DHER14 and […] cells, expressing either the HER1-HER2 chimera, EGFR or PDGFR, respectively, were used for the determination of inhibitory selectivity. Cells (7.5×10^4) were grown in 6-well plates (35 mm diameter, Nalge Nunc) for 24 hours and then incubated in 0.25% FCS-containing medium for an additional 24 hours to about 90% confluence. Duplicate sets of cells were treated with the tested compounds at varying concentrations for 1 hour. The final concentration of the vehicle in the medium was 0.05% DMSO, 0.1% EtOH. After removal of the inhibitor from the medium, PBS wash (×2) and addition of 0.25% serum-containing medium to the wells, the cells were stimulated with either 20 ng/mL human EGF for 5 minutes (CSH12 and DHER14 cells) or 50 ng/ml human PDGFββ for 10 minutes ([…] cells) at 37° C. […]

EGFR-TK [2] = target: T1, EGFR-TK (Homo sapiens, UniProt P00533); test: EGFR-TK autophosphorylation inhibition in intact A431 cells (irreversibility assay, Western blot); type: cell-based; conditions: for nature of binding to the receptor (irreversibility): intact A431 cells, inhibition 8 hours post incubation
T1 construct: The supernatant, which contained the EGFR, was collected and frozen; endogenous in cells; host or cells: A431 cells (A1: Triton X-100 lysate captured on mAb108; A2: intact cells)
Method: A431 cells (5×10^5) were seeded in 6-well plates and grown for 24 hours to about 90% confluence in DMEM (high glucose) containing 10% fetal calf serum (FCS) and antibiotics at 37° C. The cells were then exposed to serum-free medium, at 37° C., for 18 hours.
[…] The medium was replaced thereafter with an inhibitor/FCS-free medium and the cells were divided into two groups: cells of the first group were immediately stimulated with EGF (20 ng/ml) for 5 minutes and then washed with PBS, while cells of the second group were incubated for additional 8 hours, at 37° C. During the 8 hours period, the medium was changed three times (after 2, 4 and 8 hours). After the post-incubation period, the cells of the second group were stimulated with EGF (20 ng/ml) for 5 minutes and then washed with PBS.
Identical protein amounts from each lysate sample were loaded onto polyacrylamide gel (6% or 10%), separated by electrophoresis (Hoefer Pharmacia Biotech Inc., San Francisco, USA) and transferred to nitrocellulose membrane (power supply: EPS 500/400, Amersham Pharmacia Biotech; nitrocellulose extra blotting membranes: Sartorius AG, Goettingen, Germany). A standard high molecular weight solution was loaded as a reference. For visualization of molecular weight bands, the membrane was immersed in Ponceau reagent (0.05% Ponceau, 5% acetic acid) for a few minutes, and then washed twice with TTN (10 mM Tris pH 7.4, 0.2% TWEEN 20, 170 mM NaCl) and once with water. The membrane was blocked overnight in TTN containing 5% milk (1% fat) (blocking TTN) and incubated for 90 minutes with PY20 antiphosphotyrosine antibody (Santa Cruz Biotechnology Inc., Santa Cruz, USA) diluted 1:2,000 in blocking TTN. The membrane was then washed with TTN (3×5 minutes), incubated for 90 minutes with a horseradish peroxidase-conjugated secondary antibody (Goat anti-mouse IgG H+L, Jackson ImResearch Laboratories, Inc., diluted 1:10,000 in blocking TTN), and finally washed again with TTN (3×5 minutes).
After the incubation, the media was replaced with inhibitor/FCS-free media and the inhibition effect was measured either immediately thereafter or after 8 hours post incubation.

EGFR = target: T2, EGFR (Homo sapiens, UniProt P00533); test: Selective-inhibition assay in DHER14 cells (receptor phosphotyrosine, Western blot); type: cell-based; conditions: DHER14 cells expressing EGFR, 1 hour incubation, EGF stimulation
T2 construct: expressed in transfected cells; host or cells: NIH3T3 (DHER14 cells)
Method: as §1, §2

[3] = Challenge reaction with reduced glutathione (HPLC conversion to conjugates); type: physicochemical; conditions: even at temperatures exceeding 100° C.
EGFR-TK [4] = target: T1, EGFR-TK; test: EGFR-TK autophosphorylation inhibition in A431 cell lysate (ELISA); type: biochemical; conditions: read-out: A431 lysate IC50 app
Method: All the following incubations were performed at room temperature and with constant shaking. […] The final volume for each well was 150 μl.
In this step the temperature was kept at 26° C. and the plate was under constant shaking. The incubation with ATP/MnCl2 was for 5 minutes.
Afterward, polyclonal anti-phosphotyrosine serum (Sugen, Inc.) was added (dilution of antibody in TBST containing 5% milk). The incubation was for 45 minutes.

[5] = Intact A431 cells IC50 range (8 hr post incubation with inhibitor), 1 hour incubation, then 8 hours in inhibitor-free medium before EGF stimulation
[6] = Intact A431 cells IC50 range (1 hr post incubation with inhibitor), 1 hour incubation with inhibitor, medium replaced, EGF stimulation immediately

T1 sequence (P00533 25-1210): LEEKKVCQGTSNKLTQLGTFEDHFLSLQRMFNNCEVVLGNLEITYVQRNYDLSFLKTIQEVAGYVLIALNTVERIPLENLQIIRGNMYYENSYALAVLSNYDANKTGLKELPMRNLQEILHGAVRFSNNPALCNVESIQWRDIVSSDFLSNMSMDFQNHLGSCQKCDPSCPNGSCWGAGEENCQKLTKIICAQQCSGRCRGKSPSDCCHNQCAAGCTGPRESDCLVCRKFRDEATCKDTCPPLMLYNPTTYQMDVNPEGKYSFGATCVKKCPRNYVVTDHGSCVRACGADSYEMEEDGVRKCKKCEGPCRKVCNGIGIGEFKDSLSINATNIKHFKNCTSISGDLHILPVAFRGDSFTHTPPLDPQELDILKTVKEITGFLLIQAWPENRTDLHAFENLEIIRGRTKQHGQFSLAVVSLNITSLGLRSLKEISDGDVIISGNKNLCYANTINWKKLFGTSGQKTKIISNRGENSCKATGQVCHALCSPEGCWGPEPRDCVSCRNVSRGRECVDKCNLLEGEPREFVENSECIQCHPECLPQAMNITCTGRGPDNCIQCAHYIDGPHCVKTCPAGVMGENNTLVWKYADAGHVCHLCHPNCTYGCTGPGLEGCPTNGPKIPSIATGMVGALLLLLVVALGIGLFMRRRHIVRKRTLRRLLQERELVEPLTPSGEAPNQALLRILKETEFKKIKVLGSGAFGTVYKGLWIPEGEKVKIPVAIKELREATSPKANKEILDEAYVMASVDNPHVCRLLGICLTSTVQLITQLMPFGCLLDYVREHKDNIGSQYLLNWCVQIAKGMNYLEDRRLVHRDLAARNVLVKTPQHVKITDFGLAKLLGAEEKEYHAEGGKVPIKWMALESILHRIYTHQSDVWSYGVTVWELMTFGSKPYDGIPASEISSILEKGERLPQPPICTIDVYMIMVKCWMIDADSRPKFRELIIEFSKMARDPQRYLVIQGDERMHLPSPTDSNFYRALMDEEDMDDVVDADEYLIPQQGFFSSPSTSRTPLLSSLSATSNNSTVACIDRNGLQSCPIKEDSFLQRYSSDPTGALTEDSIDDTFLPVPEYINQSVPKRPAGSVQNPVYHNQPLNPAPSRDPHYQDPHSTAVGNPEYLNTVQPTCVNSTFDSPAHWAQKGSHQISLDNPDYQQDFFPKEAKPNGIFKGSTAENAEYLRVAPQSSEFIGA
Chain of PDGFR (P09619 whole entry): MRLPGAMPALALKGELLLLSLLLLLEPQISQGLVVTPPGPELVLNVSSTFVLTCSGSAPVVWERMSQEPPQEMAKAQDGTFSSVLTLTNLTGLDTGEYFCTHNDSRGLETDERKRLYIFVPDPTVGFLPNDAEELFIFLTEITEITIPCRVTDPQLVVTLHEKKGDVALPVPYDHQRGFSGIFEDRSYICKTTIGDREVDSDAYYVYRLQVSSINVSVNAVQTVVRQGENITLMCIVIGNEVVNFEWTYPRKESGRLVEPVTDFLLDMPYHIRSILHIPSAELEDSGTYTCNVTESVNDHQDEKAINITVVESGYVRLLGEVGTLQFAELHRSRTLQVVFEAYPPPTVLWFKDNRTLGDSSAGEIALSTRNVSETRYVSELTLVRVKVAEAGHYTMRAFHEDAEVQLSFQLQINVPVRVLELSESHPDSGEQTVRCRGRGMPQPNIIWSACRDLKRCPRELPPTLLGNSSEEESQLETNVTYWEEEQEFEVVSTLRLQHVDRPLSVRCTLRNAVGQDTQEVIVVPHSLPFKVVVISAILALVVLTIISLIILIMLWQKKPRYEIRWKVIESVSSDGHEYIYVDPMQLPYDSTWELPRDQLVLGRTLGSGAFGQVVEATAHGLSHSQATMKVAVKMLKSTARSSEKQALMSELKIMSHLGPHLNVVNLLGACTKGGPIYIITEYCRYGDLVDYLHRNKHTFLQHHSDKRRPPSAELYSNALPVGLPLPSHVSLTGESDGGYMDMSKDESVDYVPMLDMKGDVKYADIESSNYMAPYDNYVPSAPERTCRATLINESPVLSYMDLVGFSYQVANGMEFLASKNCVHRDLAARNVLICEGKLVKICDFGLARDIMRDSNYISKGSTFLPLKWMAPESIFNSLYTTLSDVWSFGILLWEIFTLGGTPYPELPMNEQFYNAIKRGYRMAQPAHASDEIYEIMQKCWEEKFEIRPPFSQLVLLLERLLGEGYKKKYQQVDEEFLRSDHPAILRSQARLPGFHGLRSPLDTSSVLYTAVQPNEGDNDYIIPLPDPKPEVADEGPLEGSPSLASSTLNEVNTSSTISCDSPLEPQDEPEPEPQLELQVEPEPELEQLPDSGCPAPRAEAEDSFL
T2 sequence (P00533 25-1210): as the sequence (P00533 25-1210) above

In the case of `C=CC(=O)Nc1ccc2ncnc(Nc3cc(Cl)c(Cl)cc3F)c2c1` [Compound A, N-{4-[(3,4-dichloro-6-fluorophenyl)amino]quinazoline-6-yl}acrylamide, reference compound], the “ΔH^# 25° C. of reaction with reduced glutathione” value ([1]; 25° C.) is reported as 4.64 kCalmol^−1, the “ΔS^# 25° C. of reaction with reduced glutathione” value ([1]; 25° C.) is reported as −61.24 Calmol^−1K^−1 and the “reaction rate constant with reduced glutathione” value ([1]; room temperature, THF:MeOH:H2O (1:2:1), half an equivalent GSH, 12 equivalents N,N-diisopropylethylamine) is reported as 0.0001 M/min. The “activation energy Ea of reaction with reduced glutathione” value ([1]; temperatures from 0° C. to 60° C.) was 5.24 kCalmol^−1.

With `COCC(=O)Nc1ccc2ncnc(Nc3cc(Cl)c(Cl)cc3F)c2c1` [Compound 6, N-{4-[(4,5-Dichloro-2-fluoro-phenyl)amino]-quinazolin-6-yl}-2-methoxyacetamide] the IC50 (PDGFR) was greater than 1000 nM, the “nature of binding to the receptor (irreversibility)” value (EGFR-TK [2]) was “partial irreversible” and the IC50 (EGFR) was greater than 250 nM. The melting point was 204 to 206 °C and the “change in the reaction rate with GSH with temperature” value [3] was “no change in the reaction rate; also recorded: could not be detected”.

`COCC(=O)Nc1ccc2ncnc(Nc3cc(Cl)c(Cl)cc3F)c2c1` [drawing 20] showed an IC50 (EGFR-TK [2]; [5]) of 10000 to 50000 nM and an IC50 (EGFR-TK [4]) of 113 nM.

For `C=CC(=O)Nc1ccc2ncnc(Nc3cc(Cl)c(Cl)cc3F)c2c1` [drawing 14], the IC50 (EGFR-TK [2]; [6]) was 5 to 50 nM, the IC50 (EGFR-TK [2]; [5]) was 5 to 50 nM and the IC50 (EGFR-TK [4]; apparent IC50, ELISA, 5 μM ATP/5 mM MnCl2, average of four dose-response curves) was 0.037 nM.

For `COCC(=O)Nc1ccc2ncnc(Nc3cccc(I)c3)c2c1` [drawing 18], the IC50 (EGFR-TK [2]; [6]) was 1000 to 20000 nM, the IC50 (EGFR-TK [2]; [5]) was greater than 80000 nM and the IC50 (EGFR-TK [4]) was 65 nM.

For `COCC(=O)Nc1ccc2ncnc(Nc3cccc(I)c3)c2c1` [Compound 4, N-{4-[(3-iodophenyl)amino]-quinazolin-6-yl}-2-methoxyacetamide], the “nature of binding to the receptor (irreversibility)” value (EGFR-TK [2]) was “partial irreversible”.

In the case of `O=C(CCl)Nc1ccc2ncnc(Nc3cc(Cl)c(Cl)cc3F)c2c1` [drawing 19], the IC50 (EGFR-TK [2]; [6]) is reported as 1 to 20 nM, the IC50 (EGFR-TK [2]; [5]) is reported as 1 to 20 nM and the IC50 (EGFR-TK [4]) is reported as 5.55 nM.

With `COCC(=O)Nc1ccc2ncnc(Nc3cccc(Br)c3)c2c1` [Compound 2, N-{4-[(3-bromophenyl)amino]-quinazolin-6-yl}-2-methoxyacetamide] the melting point was 190 to 191 °C.

Molecule `O=C(CCl)Nc1ccc2ncnc(Nc3cccc(I)c3)c2c1` [Compound 3, N-{4-[(3-iodophenyl)amino]-quinazolin-6-yl}-2-chloroacetamide] has a melting point greater than 300 °C.

Molecule `O=C(CCl)Nc1ccc2ncnc(Nc3cccc(Br)c3)c2c1` [Compound 1, N-{4-[(3-bromophenyl)amino]-quinazolin-6-yl}-2-chloroacetamide] has a melting point greater than 300 °C.
